The test system of data set [1] is 2019 novel coronavirus (SARS-CoV-2) original strain. The data set can be described thus: Replication inhibitory activity against SARS-CoV-2 original strain in Vero E6 cells (qRT-PCR). It counts as cell-based. As to conditions: Severe acute respiratory syndrome coronavirus 2, Vero C1008; Vero E6 cells, MOI 0.01, 24 h p.i., viral copy number by qRT-PCR; read-out: Inhibition against viral replication of the original strain EC50.

Data set [2] can be described thus: Cytotoxicity test on Vero E6 cells (CCK8). The class given is cell-based. The conditions noted are these: African green monkey; Vero E6 cells, CCK8 kit. On the procedure:
(§1) In this embodiment, the half toxicity concentration of each embodiment on Vero E6 cells was determined by CCK8 kit analysis (CC50).
(In general: Formazan colour is commonly taken as a measure of viable cells.)

Data set [3] relates to HCoV OC43 virus. Kind of data set: Inhibition against HCoV OC43 virus replication. It counts as cell-based, human coronavirus HCoV OC43. As to conditions: Betacoronavirus 1, OC43.
The target in data set [4] is novel coronavirus envelope protein (2-E) ion channel (Severe acute respiratory syndrome coronavirus 2, UniProt P0DTC4). The data set can be described thus: Novel coronavirus envelope protein (2-E) ion channel activity test, planar lipid bilayer (BLM). It counts as biochemical, SARS-CoV-2. As to conditions: room temperature, 1, 10, 50, 100 μM, read-out: Inhibition against 2-E ion channels IC50.

In data set [5] the test system is Vero E6 cells. The data set can be described thus: Cytotoxicity test on Vero E6 cells (CCK8). It counts as cell-based. As for the experimental part: as §1
In data set [6] the target is T1, hERG potassium channel (Homo sapiens, UniProt Q12809).
T1 construct: expressed in transfected cells
Kind of data set: hERG potassium channel whole-cell membrane clamp in CHO cells. It counts as cell-based. As to conditions: CHO cells stably expressing hERG, whole-cell membrane clamp. On the procedure: Compounds were given for at least 1 min for each tested concentration, and at least 2 cells (n≥2) were tested per concentration.
For orientation: Block of hERG is tested as a sign of cardiac risk.

The structures appear in SMILES notation. Read-outs that look alike come from different tables or passages of the source.

T1 sequence (Q12809 whole entry): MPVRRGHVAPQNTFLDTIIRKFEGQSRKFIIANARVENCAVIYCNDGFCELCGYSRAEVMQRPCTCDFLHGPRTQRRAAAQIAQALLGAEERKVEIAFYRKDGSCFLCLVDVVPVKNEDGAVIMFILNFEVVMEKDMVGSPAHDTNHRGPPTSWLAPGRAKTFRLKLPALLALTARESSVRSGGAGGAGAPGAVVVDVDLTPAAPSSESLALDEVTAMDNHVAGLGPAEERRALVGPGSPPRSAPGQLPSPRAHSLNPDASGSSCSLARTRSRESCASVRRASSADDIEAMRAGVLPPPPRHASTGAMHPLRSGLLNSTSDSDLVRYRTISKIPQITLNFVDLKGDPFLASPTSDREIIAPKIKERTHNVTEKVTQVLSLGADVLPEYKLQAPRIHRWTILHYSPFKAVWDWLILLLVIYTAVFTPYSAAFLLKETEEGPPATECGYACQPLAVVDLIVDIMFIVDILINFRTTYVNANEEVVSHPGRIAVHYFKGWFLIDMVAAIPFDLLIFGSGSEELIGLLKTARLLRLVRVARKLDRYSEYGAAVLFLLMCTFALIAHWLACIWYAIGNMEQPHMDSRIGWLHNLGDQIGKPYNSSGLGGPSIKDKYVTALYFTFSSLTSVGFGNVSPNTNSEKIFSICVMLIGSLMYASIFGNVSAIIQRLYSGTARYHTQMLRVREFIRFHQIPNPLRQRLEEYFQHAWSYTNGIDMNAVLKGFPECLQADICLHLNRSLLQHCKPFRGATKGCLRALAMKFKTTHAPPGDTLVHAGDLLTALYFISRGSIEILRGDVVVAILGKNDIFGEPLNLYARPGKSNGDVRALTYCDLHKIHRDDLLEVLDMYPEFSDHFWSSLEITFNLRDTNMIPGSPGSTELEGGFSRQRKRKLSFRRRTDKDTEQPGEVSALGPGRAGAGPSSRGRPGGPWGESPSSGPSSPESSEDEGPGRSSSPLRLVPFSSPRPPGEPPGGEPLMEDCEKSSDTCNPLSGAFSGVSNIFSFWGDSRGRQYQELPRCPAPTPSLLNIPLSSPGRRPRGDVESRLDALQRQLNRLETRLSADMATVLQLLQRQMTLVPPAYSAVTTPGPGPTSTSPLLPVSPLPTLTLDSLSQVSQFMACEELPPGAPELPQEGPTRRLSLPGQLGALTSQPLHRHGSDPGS
novel coronavirus envelope protein (2-E) ion channel, sequence (P0DTC4 whole entry, looked up): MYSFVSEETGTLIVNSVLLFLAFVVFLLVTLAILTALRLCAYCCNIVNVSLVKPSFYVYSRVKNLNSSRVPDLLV

As usually defined, the EC50 is the concentration needed to bring the measured effect to its halfway point. By IC50 is commonly meant the concentration at which inhibition is half-maximal. `COc1cc2c3cc1Oc1c(OC)c(OC)cc4c1[C@H](Cc1ccc(cc1)Oc1cc(ccc1C(C)=O)C[C@H]3N(C)CC2)N(C)CC4` [Compound 19]: the EC50 in data set [1] lay within 0.5 to 1.5 µM. In data set [2], this compound came in with an IC50 of 30 to 50 µM.

For `COc1cc2c3cc1Oc1c(OC)c(OC)cc4c1[C@H](Cc1ccc(cc1)Oc1cc(ccc1CO)C[C@H]3N(C)CC2)N(C)CC4` [Compound 9], the EC50 in data set [3] is 3 µM; in data set [1], 0.5 to 1.5 µM. For the same compound, the IC50 in data set [4] is 10 to 30 µM; in data set [2] it was more than 50 µM.

With `C=C(C)c1ccc2cc1Oc1ccc(cc1)C[C@H]1c3c(cc(OC)c(OC)c3Oc3cc4c(cc3OC)CCN(C)[C@@H]4C2)CCN1C` [Compound 34], the values for the IC50 in data set [4] and in data set [2] were less than 10 µM and 10 to 30 µM, respectively. Besides, the EC50 in data set [1] was 0.5 to 1.5 µM.

Take `COc1ccc2cc1Oc1ccc(cc1)C[C@H]1c3cc(c(OC)cc3CCN1C)Oc1c(OC)c(OC)cc3c1[C@H](C2)N(C)CC3` [tetrandrine, reference compound]: the “cytotoxicity (background statement)” value in data set [5] is on record as “high cytotoxicity”.

On to `COc1cc2c3cc1Oc1c(OC)c(OC)cc4c1[C@H](Cc1ccc(cc1)Oc1cc(ccc1C(=O)NC1CCCC1)C[C@H]3N(C)CC2)N(C)CC4` [Compound 22], for which, in data set [1], the concentration giving a half-maximal response (EC50) was in the range of 0.5 to 1.5 µM. Further, the IC50 in data set [2] was 10 to 30 µM.

For the compound `CNC(=O)c1ccc2cc1Oc1ccc(cc1)C[C@H]1c3c(cc(OC)c(OC)c3Oc3cc4c(cc3OC)CCN(C)[C@@H]4C2)CCN1C` [Compound 5], the values for the IC50 in data set [6] and in data set [2] were 9.4 µM and more than 50 µM, respectively. The EC50 in data set [1] lay in the range of 1 to 10 µM. Further, the “cytotoxicity on Vero E6 cells compared with oxyacanthine hydrochloride” value in data set [5] (Vero E6 cells) was “weaker cytotoxicity than oxyacanthine hydrochloride”.

Consider `COc1cc2c3cc1Oc1c(OC)c(OC)cc4c1[C@H](Cc1ccc(cc1)Oc1cc(ccc1C(=O)Nc1cccnc1)C[C@H]3N(C)CC2)N(C)CC4` [Compound 51], for which, in data set [1], the EC50 lay within 0.1 to 1 µM. In data set [2], this compound had an IC50 of 10 to 30 µM.

On to `COc1cc2c3cc1Oc1c(OC)c(OC)cc4c1[C@H](Cc1ccc(cc1)Oc1cc(cc5[nH]c(=O)oc15)C[C@H]3N(C)CC2)N(C)CC4` [Compound 17], for which, in data set [1], the EC50 lay within 0.1 to 1 µM. This compound also returned a half-maximal inhibitory concentration (IC50) in data set [2] of 10 to 30 µM.

Consider `COc1cc2c3cc1Oc1c(OC)c(OC)cc4c1[C@H](Cc1ccc(cc1)Oc1cc(ccc1C)C[C@H]3N(C)CC2)N(C)CC4` [Compound 35], for which, in data set [1], the half-maximal effective concentration (EC50) lay in the range of 1 to 5 µM. The IC50 in data set [2] is 10 to 30 µM.

Turning to `COc1cc2c3cc1Oc1c(OC)c(OC)cc4c1[C@H](Cc1ccc(cc1)Oc1cc(ccc1C(=O)NC1CCC1)C[C@H]3N(C)CC2)N(C)CC4` [Compound 50], the IC50 in data set [6] is 4.5 µM; in data set [2], 30 to 50 µM. Moreover, the EC50 in data set [1] lay within 0.1 to 1 µM.

As for `COc1cc2c3cc1Oc1c(OC)c(OC)cc4c1[C@H](Cc1ccc(cc1)Oc1cc(ccc1C(=O)NCCOCCO)C[C@H]3N(C)CC2)N(C)CC4` [Compound 55], the IC50 was more than 40 µM in data set [6] and more than 100 µM in data set [2]. Besides, the EC50 in data set [1] was 1 to 5 µM.

With `COc1cc2c3cc1Oc1c(OC)c(OC)cc4c1[C@H](Cc1ccc(cc1)Oc1cc(ccc1C(=O)Nc1ccccc1)C[C@H]3N(C)CC2)N(C)CC4` [Compound 45], the IC50 in data set [6] is more than 20 µM; in data set [4], less than 10 µM; in data set [2], 10 to 30 µM. In addition, the EC50 in data set [1] was 1 to 5 µM.

For the compound `COc1cc2c3cc1Oc1c(OC)c(OC)cc4c1[C@H](Cc1ccc(cc1)Oc1cccc(c1)C[C@H]3N(C)CC2)N(C)CC4` [Compound 33], the IC50 was more than 40 µM in data set [6] and 10 to 30 µM in data set [2]. Also, the EC50 in data set [3] was 4.1 µM; in data set [1] it was 0.1 to 1 µM.

Regarding `CCCCCNC(=O)c1ccc2cc1Oc1ccc(cc1)C[C@H]1c3c(cc(OC)c(OC)c3Oc3cc4c(cc3OC)CCN(C)[C@@H]4C2)CCN1C` [Compound 37], the IC50 in data set [6] is more than 20 µM; in data set [4], less than 10 µM; in data set [2], 10 to 30 µM. Further, in data set [1], the EC50 was in the range of 1 to 5 µM.

As to `COc1ccc(NC(=O)c2ccc3cc2Oc2ccc(cc2)C[C@H]2c4c(cc(OC)c(OC)c4Oc4cc5c(cc4OC)CCN(C)[C@@H]5C3)CCN2C)cc1` [Compound 52], the EC50 in data set [1] lay in the range of 0.1 to 1 µM. The same compound displayed an IC50 in data set [2] of 10 to 30 µM.

Turning to `COc1cc2c3cc1Oc1c(OC)c(OC)cc4c1[C@H](Cc1ccc(cc1)Oc1cc(ccc1C(=O)NC15CC6CC(CC(C6)C1)C5)C[C@H]3N(C)CC2)N(C)CC4` [Compound 49], the EC50 in data set [1] was 0.1 to 1 µM. The compound further came in with an IC50 in data set [2] of 5 to 10 µM.

Take `COc1cc2c3cc1Oc1c(OC)c(OC)cc4c1[C@H](Cc1ccc(cc1)Oc1cc(ccc1C(C)O)C[C@H]3N(C)CC2)N(C)CC4` (some centres unmarked) [Compound 40]: the concentration for a half-maximal effect (EC50) in data set [1] was in the range of 0.1 to 1 µM. In data set [2], this compound had an IC50 of 30 to 50 µM.

With `COc1cc2c3cc1Oc1c(OC)c(OC)cc4c1[C@@H](Cc1ccc(O)c(c1)Oc1ccc(cc1)C[C@@H]3N(C)CC2)N(C)CC4` [berbamine, reference compound], the “cytotoxicity (background statement)” value in data set [5] (inventors' screening of natural products) is given as “high cytotoxicity”.

Consider `COc1cc2c3cc1Oc1c(OC)c(OC)cc4c1[C@H](Cc1ccc(cc1)Oc1cc(ccc1C1CC1)C[C@H]3N(C)CC2)N(C)CC4` [Compound 38], for which the EC50 in data set [1] was 1 to 5 µM. Moreover, the IC50 in data set [2] lay in the range of 10 to 30 µM.

Turning to `COc1cc2c3cc1Oc1c(OC)c(OC)cc4c1[C@H](Cc1ccc(cc1)Oc1cc(ccc1C(=O)C1CC1)C[C@H]3N(C)CC2)N(C)CC4` [Compound 54], in data set [1], the EC50 was 1 to 5 µM. The compound also yielded an IC50 in data set [2] of 10 to 30 µM.

With `COc1cc2c3cc1Oc1c(OC)c(OC)cc4c1[C@H](Cc1ccc(cc1)Oc1cc(ccc1C(=O)O)C[C@H]3N(C)CC2)N(C)CC4` [Compound 7], the IC50 in data set [6] is more than 40 µM; in data set [4], 10 to 30 µM; in data set [2], more than 50 µM.

As to `COc1cc2c3cc1Oc1c(OC)c(OC)cc4c1[C@H](Cc1ccc(cc1)Oc1cc(ccc1C(=O)NC(C)C)C[C@H]3N(C)CC2)N(C)CC4` [Compound 48], the EC50 in data set [1] fell in the range of 0.1 to 1 µM. The compound also gave an IC50 in data set [2] of 10 to 30 µM.
